Assay results published in patent publication US20240352055A1, “PROCESS FOR THE MANUFACTURE OF (2S,3S,4S,5R,6S)-3,4,5-TRIHYDROXY-6-(((4AR,10AR)-7-HYDROXY-1-PROPYL-1,2,3,4,4A,5,10,10A-OCTAHYDROBENZO[G]QUINOLIN-6-YL)OXY)TETRAHYDRO-2H-PYRAN-2-CARBOXYLIC ACID” (H. LUNDBECK A/S, priority 2019, published 2024).
Like-named read-outs stand apart in the source and are kept apart here.

Assays:
human 5-HT2B receptor = human 5-HT2B receptor (Homo sapiens (Human), UniProt P41595); test: 5-HT2B agonist activity assay (IP1 production, HTRF); format: cell-based; conditions: for 5-HT2B agonist effect at single concentration: percent of control response to 1 μM 5-HT; for EC50: CHO cells expressing human 5-HT2B, IP1 production
Chain of human 5-HT2B receptor (P41595 whole entry): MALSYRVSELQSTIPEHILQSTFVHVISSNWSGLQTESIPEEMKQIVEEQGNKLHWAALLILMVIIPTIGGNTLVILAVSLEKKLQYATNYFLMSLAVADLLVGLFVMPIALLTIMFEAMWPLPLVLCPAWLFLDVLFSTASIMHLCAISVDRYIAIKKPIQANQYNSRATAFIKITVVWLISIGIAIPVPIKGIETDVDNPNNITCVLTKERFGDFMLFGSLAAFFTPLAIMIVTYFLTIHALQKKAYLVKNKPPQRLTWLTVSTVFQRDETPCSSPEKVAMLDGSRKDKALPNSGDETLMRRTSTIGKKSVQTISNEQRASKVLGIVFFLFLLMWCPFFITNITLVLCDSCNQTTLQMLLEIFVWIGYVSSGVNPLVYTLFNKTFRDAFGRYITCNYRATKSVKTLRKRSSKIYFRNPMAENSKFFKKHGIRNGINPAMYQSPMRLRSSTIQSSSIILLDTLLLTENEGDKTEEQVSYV
Method: Evaluation of the agonist activity of compounds (I), (Ia)(Ib), (Ic), and (Id) at the human 5-HT2B receptor was performed by Eurofins/Cerep (France) measuring the compound effects on inositol monophosphate (IP1) production using the HTRF detection method. Briefly, the human 5-HT2B receptor was expressed in transfected CHO cells. The cells were suspended in a buffer containing 10 mM Hepes/NaOH (pH 7.4), 4.2 mM KCl, 146 mM NaCl, 1 mM CaCl2, 0.5 mM MgCl2, 5.5 mM glucose and 50 mM LiCl, then distributed in microplates at a density of 4100 cells/well and incubated for 30 minutes at 37° C. in the presence of buffer (basal control), test compound or reference agonist. For stimulated control measurement, separate assay wells contained 1 μM 5-HT. Following incubation, the cells were lysed and the fluorescence acceptor (fluorophen D2-labeled IP1) and fluorescence donor (anti-IP1 antibody labeled with europium cryptate) were added. After 60 minutes at room temperature, the fluorescence transfer was measured at lambda (Ex) 337 nm and lambda(Em) 620 and 665 nm using a microplate reader (Rubystar, BMG). The IP1 concentration was determined by dividing the signal measured at 665 nm by that measured at 620 nm (ratio). The results were expressed as a percent of the control response to 1 μM 5-HT. The standard reference agonist was 5-HT, which was tested in each experiment at several concentrations to generate a concentration-response curve from which its EC50 value is calculated as described above for dopamine functional assays.

[1] = PK experiments in rats: plasma compound (I) after oral dosing of prodrugs; format: in vivo, Han Wistar rats; conditions: Wistar rats, oral dosing of the prodrug
Method: Plasma was placed on water-ice following collection. Final storage at approximately −70° C.
Instrumentation Used for Analysis of Compound (I) from Dosing Compound (Ia):
Mobile phase B: Acetonitrile. […] Flow rate 0.5 mL/min.
The rats had unrestricted access to the diet.
Instrumentation Used for Analysis of Compound (I) from Dosing of Compound (Ib):
Mobile phase B: Acetonitrile+0.2% formic acid. […] Flow rate 0.3 mL/min.
Dosing and blood sampling for compound (Ic): Han Wistar rats were supplied by Envigo, UK. […] The rats received a standard laboratory diet Teklad 2014C. The rats had unrestricted access to the diet. […] Rats were given 494 μg/kg (Ic).

human D1 receptor = human D1 receptor (Homo sapiens (Human), UniProt P21728); test: Dopamine D1 receptor agonism, HTRF cAMP assay; format: cell-based
Chain of human D1 receptor (P21728 whole entry): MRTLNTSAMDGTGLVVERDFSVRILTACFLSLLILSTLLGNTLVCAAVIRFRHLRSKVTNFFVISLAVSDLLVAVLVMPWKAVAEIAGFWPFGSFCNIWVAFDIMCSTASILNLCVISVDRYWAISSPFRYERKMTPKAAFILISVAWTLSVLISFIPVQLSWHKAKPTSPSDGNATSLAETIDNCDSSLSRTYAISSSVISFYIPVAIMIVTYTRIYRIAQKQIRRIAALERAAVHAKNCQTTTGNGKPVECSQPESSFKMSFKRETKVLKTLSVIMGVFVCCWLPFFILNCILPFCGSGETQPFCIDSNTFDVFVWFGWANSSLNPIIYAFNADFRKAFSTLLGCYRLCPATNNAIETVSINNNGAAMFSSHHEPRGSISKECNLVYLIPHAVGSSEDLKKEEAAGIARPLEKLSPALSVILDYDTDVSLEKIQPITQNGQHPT
Method: Dopamine D1 receptor agonism was measured using a HTRF cAMP from CisBio using the protocol developed by HD Biosciences (China). Briefly, the assay is a homogeneous time resolved-fluorescence resonance energy transfer (HTRF) assay that measures production of cAMP by cells in a competitive immunoassay between native cAMP produced by cells and cAMP-labeled with XL-665. A cryptate-labeled anti-cAMP antibody visualizes the tracer. The assay was performed in accordance with instructions from manufacturer.
Test compounds were added to wells of microplates (384 format). HEK-293 cells expressing the human D1 receptor were plated at 1000 cells/well and incubated 30 minutes at room temperature. cAMP-d2 tracer was added to wells and followed by addition of Anti-cAMP antibody-cryptate preparation and incubated for 1 hour at room temperature in dark. HTRF cAMP was measured by excitation of the donor with 337 nm laser (the “TRF light unit”) and subsequent (delay time 100 microseconds) measurement of cryptate and d2 emission at 615 nm and 665 nm over a time window of 200 microseconds with a 2000 microseconds time window between repeats/100 flashes). HTRF measurements were performed on an Envision microplate reader (PerkinElmer). The HTRF signal was calculated as the emission-ratio at 665 nm over 615 nm. The HTRF ratio readout for test compounds was normalized to […] and 100% stimulation using control wells with DMSO-solvent or 30 μM dopamine. Test compound potency (EC50) was estimated by nonlinear regression using the sigmoidal dose-response (variable slope) using Xlfit 4 (IDBS, Guildford, Surrey, UK, model 205).
y=(A+((B−A)/(1+((C/x)^D))))
(§1) where y is the normalized HTRF ratio measurement for a given concentration of test compound, x is the concentration of test compound, A is the estimated efficacy at infinite compound dilution, and B is the maximal efficacy. C is the EC50 value and D is the Hill slope coefficient. EC50 estimates were obtained from an independent experiment and the logarithmic average was calculated.

[2] = Liu et al., Bioorganic Med. Chem. (2008); cited from earlier work
human D2 receptor = human D2 receptor (Homo sapiens (Human), UniProt P14416); test: Dopamine D2 receptor agonism, calcium mobilization assay; format: cell-based; conditions: HEK293/G15 cells expressing human D2 receptor; calcium flux
Chain of human D2 receptor (P14416 whole entry): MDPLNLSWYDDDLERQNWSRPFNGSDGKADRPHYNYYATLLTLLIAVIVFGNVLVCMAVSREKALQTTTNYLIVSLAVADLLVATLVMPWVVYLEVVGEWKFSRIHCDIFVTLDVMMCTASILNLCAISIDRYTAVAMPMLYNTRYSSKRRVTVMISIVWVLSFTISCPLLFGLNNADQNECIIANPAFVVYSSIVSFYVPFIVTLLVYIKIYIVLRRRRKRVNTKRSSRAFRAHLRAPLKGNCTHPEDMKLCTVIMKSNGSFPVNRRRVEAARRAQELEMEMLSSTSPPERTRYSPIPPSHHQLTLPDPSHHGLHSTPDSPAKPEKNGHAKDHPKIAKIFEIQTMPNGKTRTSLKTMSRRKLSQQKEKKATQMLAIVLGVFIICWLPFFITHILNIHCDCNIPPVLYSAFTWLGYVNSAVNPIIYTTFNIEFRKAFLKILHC
Method: Dopamine D2 receptor agonism was measured using a calcium mobilization assay protocol developed by HD Biosciences (China). Briefly, HEK293/G15 cells expressing human D2 receptor were plated at a density of 15000 cells/well in clear-bottomed, Matrigel-coated 384-well plates and grown for 24 hours at 37° C. in the presence of 5% CO2. The cells were incubated with calcium-sensitive fluorescent dye, Fluo8, for 60-90 minutes at 37° C. in the dark. Test compounds were prepared at 3-fold concentrated solution in 1×HBSS buffer with Ca^2. and Mg^2+. Calcium Flux signal was immediately recorded after compounds were added from compound plate to cell plate at FLIPR (Molecular Devices). The fluorescence data were normalized to yield responses for no stimulation (buffer) and full stimulation (1 μM of dopamine) of 0% and 100%. stimulation, respectively. Test compound potency (EC50) was estimated by nonlinear regression using the sigmoidal dose-response (variable slope) using Xlfit 4 (IDBS, Guildford, Surrey, UK, model 205).
as §1, with “normalized” for “normalized HTRF”, “from” for “from an”

[3] = Conversion of compound (Id) to compound (I) in rat hepatocytes; format: in vitro ADME; conditions: 1 μg/mL, 37° C., up to 60 minutes
Method: (§2) The cell concentration at incubation was 1×10^6 viable cells/mL. The incubations were performed in glass tubes at 37° C. with a total incubation volume of 3.5 mL and with duplicate incubations for each test item. The 3.5 mL of hepatocyte suspension was equilibrated for 10 minutes in a water bath set to 37° C. where after the incubations were initiated by adding 3.5 μL of a stock solution of the test item in DMSO (Dimethyl sulfoxide) and gently inverting the tubes. The final solvent concentration in the incubations was 0.1% DMSO. Samples of 600 μL were withdrawn from the incubations at the pre-determined time points of 0.25, 5, 15, 30 and 60 minutes after ensuring homogeneity of hepatocyte suspensions. The withdrawn volume was added to 1 mL Nunc cryotubes on wet ice containing 60 μL of ice-cold ascorbic acid (100 mg/mL) and 30 μL of ice cold 100 mM saccharic acid 1.4-lactone in 0.5 M citric acid. The tubes were mixed and 35 μL of a solution of ice cold 20% formic acid was added. The tubes were mixed thoroughly and stored at −80° C. awaiting analysis.

[4] = In vivo conversion of compound (Id) to compound (I) after oral dosing in minipigs
[5] = Conversion of compound (Id) to compound (I) in fresh human blood; format: in vitro ADME; conditions: 1 μg/mL, 37° C., up to 60 minutes
Method: (§3) Conversion of (Id) in human blood (average of 3 donors) and rat blood (average of […]) to (1) was shown in fresh blood at 37° C. spiked with 1 μg/mL of (Id). (1) was measured at 0, 5, 15, 30 and 60 minutes in isolated plasma. Analysis method and Instrumentation as described in Examples 9 and 10 below in the section “Instrumentation used for analysis of compound (I) from dosing of compounds (Ic) and (d).”

[6] = Conversion of compound (Id) to compound (I) in fresh rat blood; format: in vitro ADME; conditions: 1 μg/mL, 37° C., up to 60 minutes
Method: as §3

[7] = Conversion of compound (Id) to compound (I) in human hepatocytes; format: in vitro ADME; conditions: 1 μg/mL, 37° C., up to 60 minutes
Method: as §2

locomotor activity = test: Rat locomotor activity (hyperactivity) assay, open field; format: in vivo, male CD rats; conditions: for Onset of increased locomotor activity post-administration / End of locomotor effect, time post administration: (Id) 10 to 300 μg/kg p.o.; for End of locomotor effect, time post administration: recording to the 415-minute time point
Method: In total, 206 male CD rats (Charles River, Germany) weighing 200-250 grams (165-190 grams upon arrival) were used in the study. Animals were housed at a standard temperature (22±1° C.) and in a light-controlled environment (lights on from 7 am to […]) with ad libitum access to food and water. The experiment described below was performed in accordance with the standard operating procedures of Charles River Discovery Research Services Finland Ltd. and in accordance with the national Animal Experiment Board of Finland (Eläinkoelautakunta, ELLA) authority on animal testing.
The test device is a square Plexiglass-arena (measuring 40×40×40 cm), in which the movement paths of the rats are recorded by an activity monitor (Med. Associates Inc.). Before the test period is initiated, rats are habituated to their test cage for 60 minutes. Upon completion of habituation, animals were treated with either compound or vehicle and placed back into the open field apparatus. The main test parameter measured is ambulatory distance (recorded in 5 minute segments). Overall time of measurement after receiving initial treatment was 360 minutes. Total follow up period in the study was 420 minutes, including 60 minutes of habituation.
Apomorphine and pramipexole were also concomitantly tested in this assay as comparators (i.e. known standard-of-care (SoC) in the Parkinson's Disease field), and plasma concentration was analyzed for apomorphine.

[8] = in man after oral dosing; cited from earlier work
[9] = HEK-293 cells expressing human D1 receptor, cAMP HTRF, read-out: D1 EC50
[10] = apomorphine 3 mg/kg s.c., pramipexole 0.3 mg/kg s.c.

| Structure (SMILES) | Plasma profile of compound (I) after oral dosing (in words) [1] | EC50 (human 5-HT2B receptor) [nM] | EC50 (human D1 receptor; [9]) [nM] | EC50 (human D2 receptor) [nM] | Onset of increased locomotor activity post-administration (locomotor activity; [10]) | other results |
| --- | --- | --- | --- | --- | --- | --- |
| CCCN1CCC[C@@H]2Cc3c(ccc(OC(=O)C(C)(C)C)c3OC(=O)C(C)(C)C)C[C@H]21 [(Ic)] | extremely low | – | – | – | – | 5-HT2B agonist effect at single concentration (human 5-HT2B receptor; @10 μM): −5%@10 μM |
| CCCN1CCC[C@@H]2Cc3c(ccc(O)c3O)C[C@H]21 [Compound (I), (4aR,10aR)-1-Propyl-1,2,3,4,4a,5,10,10a-octahydro-benzo[g]quinoline-6,7-diol] | – | 2900 | 3.3 | 1.3 | – | Oral bioavailability (in words) [2]: low oral bioavailability |
| CCCN1CCC[C@@H]2CC3=C(CCCC3=O)C[C@H]21 [Compound (Ia)] | early and high peak concentrations of compound (I) | > 6000 | > 1000 | > 1000 | – | 5-HT2B agonist effect at single concentration (human 5-HT2B receptor; @30 μM): 58% |
| CCCN1CCC[C@@H]2Cc3c(ccc4c3OCO4)C[C@H]21 [Compound (Ib)] | early and high peak concentrations of compound (I) | 3.8 | – | 46 | – | 5-HT2B receptor agonism (in words) (human 5-HT2B receptor): agonist of the 5-HT2B receptor; EC50 (human D1 receptor): > 1000 nM |
| CCCN1CCC[C@@H]2Cc3c(ccc(O)c3O[C@@H]3O[C@H](C(=O)O)[C@@H](O)[C@H](O)[C@H]3O)C[C@H]21 [Compound (Id), (2S,3S,4S,5R,6S)-3,4,5-trihydroxy-6-(((4aR,10aR)-7-hydroxy-1-propyl-1,2,3,4,4a,5,10,10a-octahydrobenzo[g]quinolin-6-yl)oxy)tetrahydro-2H-pyran-2-carboxylic acid] | slower absorption rate avoiding rapid peak concentrations accompanied by a sustained exposure of compound (I) in plasma | – | 2700 | 1100 | ~2 h | Conversion to compound (I) [3]: time dependent conversion; In vivo conversion to compound (I) [4]: observed; Conversion to compound (I) [5]: time dependent conversion; Conversion to compound (I) [6]: time dependent conversion; Conversion to compound (I) [7]: time dependent conversion; End of locomotor effect, time post administration (locomotor activity; apomorphine 3 mg/kg s.c.): lasting until the end of recording; Total distance travelled (locomotor activity; versus vehicle, (Id) 10-300 μg/kg p.o., apomorphine 3 mg/kg s.c., pramipexole 0.3 mg/kg s.c.): significantly increased activity |
| CCCN[C@H]1CCc2nc(N)sc2C1 [Pramipexole, pramipexole] | – | – | – | – | about 1 hours | Locomotor effect gone, time after its appearance (locomotor activity; pramipexole 0.3 mg/kg s.c., at the 270-minute time point): 2.5 h |
| CCCc1cc2c(s1)CN[C@@H]1CCc3cc(OC(C)=O)c(OC(C)=O)cc3[C@@H]21 [adrogolide] | – | – | – | – | – | Oral bioavailability [8]: ~4% |
| CN1CCc2cccc3c2[C@H]1Cc1ccc(O)c(O)c1-3 [apomorphine] | – | – | – | – | immediate | End of locomotor effect, time post administration (locomotor activity; apomorphine 3 mg/kg s.c.): 1.5 h |
